PubChem BioAssay (NCI)
Several values for one entry are separate records, joined by “and”; a condition that tells them apart may be missing. Equal values may be shown once.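 These data come from cells grown in 96-well plates and exposed to compound for 48 hours at five concentrations. GI50 marks 50% less growth. TGI marks complete inhibition of growth.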

Legend:
Test in all cases: NCI anticancer screen, dose series, 48 h
BT-549 breast = tested on: BT-549 breast
CCRF-CEM leukemia = tested on: CCRF-CEM leukemia
HS 578T breast = tested on: HS 578T breast
OVCAR-3 ovarian = tested on: OVCAR-3 ovarian
PC-3 prostate = tested on: PC-3 prostate
SF-295 CNS = tested on: SF-295 CNS
SN12C renal = tested on: SN12C renal
SNB-19 CNS = tested on: SNB-19 CNS
TK-10 renal = tested on: TK-10 renal
HOP-62 NSCLC = tested on: HOP-62 NSCLC

## COc1cc(NCc2ccc3nc(N)nc(N)c3c2C)cc(OC)c1OC (tested in a mixture with another compound)
BT-549 breast
  GI50: 0.0611 µM
  TGI: 34.2 µM and 45.4 µM
CCRF-CEM leukemia
  TGI: 86 µM
HS 578T breast
  GI50: 29 µM and 8.3 µM
OVCAR-3 ovarian
  TGI: 77.8 µM
PC-3 prostate
  TGI: 37.4 µM
SF-295 CNS
  GI50: 0.372 nM
SN12C renal
  GI50: 0.457 nM
SNB-19 CNS
  TGI: 113 µM
TK-10 renal
  GI50: 23.2 µM and 4.8 µM
  TGI: 47.5 µM

## O=C(/C=C/c1cccc2ccccc12)c1ccccc1Cl
CCRF-CEM leukemia
  TGI: 17.2 µM
HOP-62 NSCLC
  TGI: 37.3 µM
OVCAR-3 ovarian
  TGI: 25.6 µM
SN12C renal
  TGI: > 100 µM
SNB-19 CNS
  TGI: 27 µM
TK-10 renal
  TGI: 28.1 µM

## COc1ccc(CC2NCCc3c2[nH]c2ccccc32)cc1 (configuration not stated)
CCRF-CEM leukemia
  TGI: > 100 µM
HOP-62 NSCLC
  TGI: > 100 µM
OVCAR-3 ovarian
  TGI: > 100 µM
SF-295 CNS
  TGI: > 100 µM
SN12C renal
  TGI: > 100 µM
SNB-19 CNS
  TGI: > 100 µM
TK-10 renal
  TGI: > 100 µM

## CCC[CH2][Sn]([Cl])([CH2]CCC)[CH2]CCC
CCRF-CEM leukemia
  GI50: 0.0288 µM
  TGI: 0.225 µM
HOP-62 NSCLC
  GI50: 0.271 µM
  TGI: 1.13 µM
OVCAR-3 ovarian
  GI50: 0.142 µM
  TGI: 0.312 µM
SF-295 CNS
  GI50: 120 nM
  TGI: 0.245 µM
SN12C renal
  GI50: 119 nM
  TGI: 0.254 µM
SNB-19 CNS
  GI50: 0.174 µM
  TGI: 0.346 µM
TK-10 renal
  GI50: 0.129 µM
  TGI: 0.261 µM

## CCOC(=O)Nc1ccc(C)c(NC(=O)OCC)c1
CCRF-CEM leukemia
  TGI: > 100 µM
HOP-62 NSCLC
  TGI: > 100 µM
HS 578T breast
  TGI: > 100 µM
OVCAR-3 ovarian
  TGI: > 100 µM
PC-3 prostate
  TGI: > 100 µM
SF-295 CNS
  TGI: > 100 µM
SN12C renal
  TGI: > 100 µM
SNB-19 CNS
  TGI: > 100 µM
TK-10 renal
  TGI: > 100 µM

## Cc1nn(-c2ccc(Cl)cc2)c2nc3c(nc12)C(=O)c1ccccc1-3
BT-549 breast
  GI50: > 100 µM
  TGI: > 100 µM
CCRF-CEM leukemia
  GI50: > 100 µM
  TGI: > 100 µM
HOP-62 NSCLC
  GI50: 13.7 µM
  TGI: > 100 µM
HS 578T breast
  GI50: 15.7 µM
  TGI: > 100 µM
OVCAR-3 ovarian
  GI50: > 100 µM
  TGI: > 100 µM
SF-295 CNS
  GI50: > 100000 nM
  TGI: > 100 µM
SN12C renal
  GI50: > 100000 nM
  TGI: > 100 µM
SNB-19 CNS
  GI50: > 100 µM
  TGI: > 100 µM

## CCC(C)COC(=O)c1ccc(N=Cc2ccc(C=Nc3ccc(C(=O)OCC(C)CC)cc3)cc2)cc1 (configuration not stated)
CCRF-CEM leukemia
  TGI: > 100 µM
HOP-62 NSCLC
  TGI: > 100 µM
OVCAR-3 ovarian
  TGI: > 100 µM
SF-295 CNS
  TGI: > 100 µM
SN12C renal
  TGI: > 100 µM
SNB-19 CNS
  TGI: > 100 µM

## Cc1[nH]c2ccccc2c1C(=O)/C=C/c1ccccc1O
CCRF-CEM leukemia
  TGI: > 100 µM
HOP-62 NSCLC
  TGI: > 100 µM
OVCAR-3 ovarian
  TGI: > 100 µM
SF-295 CNS
  TGI: > 100 µM
SN12C renal
  TGI: > 100 µM
SNB-19 CNS
  TGI: > 100 µM
TK-10 renal
  TGI: > 100 µM

## CN(C)CC[PH+](c1ccccc1)c1ccccc1.CN(C)CC[PH+](c1ccccc1)c1ccccc1.[Cl-].[Pd+2]
BT-549 breast
  GI50: > 100 µM
  TGI: > 100 µM
CCRF-CEM leukemia
  GI50: 23.9 µM
  TGI: > 100 µM
HS 578T breast
  GI50: > 100 µM
  TGI: > 100 µM
OVCAR-3 ovarian
  GI50: > 100 µM
  TGI: > 100 µM
PC-3 prostate
  GI50: > 100 µM
  TGI: > 100 µM
SF-295 CNS
  GI50: > 100000 nM
  TGI: > 100 µM
SN12C renal
  GI50: > 100000 nM
  TGI: > 100 µM
SNB-19 CNS
  GI50: > 100 µM
  TGI: > 100 µM
TK-10 renal
  GI50: > 100 µM
  TGI: > 100 µM

## O=C1/C(=C/c2ccc3c(c2)OCO3)SC2C=Nc3ccccc3N12 (configuration not stated)
HOP-62 NSCLC
  TGI: > 100 µM
OVCAR-3 ovarian
  TGI: > 100 µM
SF-295 CNS
  TGI: > 100 µM
SN12C renal
  TGI: > 100 µM
SNB-19 CNS
  TGI: > 100 µM
TK-10 renal
  TGI: > 100 µM

## O=C(CCc1n[nH]c(=S)o1)Nc1ccccc1C(F)(F)F
CCRF-CEM leukemia
  TGI: > 100 µM
HOP-62 NSCLC
  TGI: > 100 µM
OVCAR-3 ovarian
  TGI: > 100 µM
SF-295 CNS
  TGI: > 100 µM
SN12C renal
  TGI: > 100 µM
SNB-19 CNS
  TGI: > 100 µM
TK-10 renal
  TGI: > 100 µM
